Test results reported in ChEMBL document CHEMBL1139978, “Synthesis and radiopharmacological characterization of [11C]AL-438 as a nonsteroidal ligand for imaging brain glucocorticoid receptors” (Bioorg Med Chem Lett, 2007).

What was measured:
[1] = tested on: Cerebellum; experiment: Biodistribution in corticosterone pretreated Wistar rat cerebellum at 20 MBq, iv after 60 mins; format: ADME, organism-based; details: in vivo, 1 h
[2] = tested on: Blood; experiment: Biodistribution in corticosterone pretreated Wistar rat blood at 20 MBq, iv after 60 mins; format: ADME, organism-based; details: in vivo, 1 h
[3] = tested on: Pituitary gland; experiment: Biodistribution in corticosterone pretreated Wistar rat pituitary at 20 MBq, iv after 5 mins; format: ADME, organism-based; details: in vivo
[4] = tested on: Femur; experiment: Biodistribution in corticosterone pretreated Wistar rat femur at 20 MBq, iv after 5 mins; format: ADME, organism-based; details: in vivo
[5] = tested on: Adrenal; experiment: Biodistribution in corticosterone pretreated Wistar rat adrenal at 20 MBq, iv after 60 mins; format: ADME, organism-based, Adrenal tissue; details: in vivo, 1 h
[6] = tested on: Heart; experiment: Biodistribution in corticosterone pretreated Wistar rat heart at 20 MBq, iv after 5 mins; format: ADME, organism-based; details: in vivo
[7] = tested on: Spleen; experiment: Biodistribution in corticosterone pretreated Wistar rat spleen at 20 MBq, iv after 5 mins; format: ADME, organism-based; details: in vivo
[8] = tested on: Liver; experiment: Biodistribution in Wistar rat liver at 20 MBq, iv after 5 mins; format: ADME, organism-based; details: in vivo
[9] = tested on: Harderian gland; experiment: Biodistribution in corticosterone pretreated Wistar rat harderian gland at 20 MBq, iv after 5 mins; format: ADME, organism-based; details: in vivo
[10] = tested on: Spleen; experiment: Biodistribution in corticosterone pretreated Wistar rat spleen at 20 MBq, iv after 60 mins; format: ADME, organism-based; details: in vivo, 1 h
[11] = tested on: Pancreas; experiment: Biodistribution in Wistar rat pancreas at 20 MBq, iv after 60 mins; format: ADME, organism-based; details: in vivo, 1 h
[12] = tested on: Heart; experiment: Biodistribution in Wistar rat heart at 20 MBq, iv after 5 mins; format: ADME, organism-based; details: in vivo
[13] = tested on: Liver; experiment: Biodistribution in corticosterone pretreated Wistar rat liver at 20 MBq, iv after 60 mins; format: ADME, organism-based; details: in vivo, 1 h
[14] = tested on: Adrenal; experiment: Biodistribution in corticosterone pretreated Wistar rat adrenal at 20 MBq, iv after 5 mins; format: ADME, organism-based, Adrenal tissue; details: in vivo
[15] = tested on: Pancreas; experiment: Biodistribution in corticosterone pretreated Wistar rat pancreas at 20 MBq, iv after 5 mins; format: ADME, organism-based; details: in vivo
[16] = tested on: Rattus norvegicus; experiment: Biodistribution in corticosterone pretreated Wistar rat rest of brain at 20 MBq, iv after 60 mins; format: ADME, organism-based; details: in vivo, 1 h
[17] = tested on: Muscle tissue; experiment: Biodistribution in corticosterone pretreated Wistar rat muscle at 20 MBq, iv after 60 mins; format: ADME, organism-based; details: in vivo, 1 h
[18] = tested on: Rattus norvegicus; experiment: Biodistribution in Wistar rat rest of brain at 20 MBq, iv after 5 mins; format: ADME, organism-based; details: in vivo
[19] = tested on: Rattus norvegicus; experiment: Biodistribution in corticosterone pretreated Wistar rat brown fat at 20 MBq, iv after 5 mins; format: ADME, organism-based, Brown adipose tissue; details: in vivo
[20] = tested on: Cerebellum; experiment: Biodistribution in Wistar rat cerebellum at 20 MBq, iv after 5 mins; format: ADME, organism-based; details: in vivo
[21] = tested on: Cortex; experiment: Biodistribution in corticosterone pretreated Wistar rat cortex at 20 MBq, iv after 5 mins; format: ADME, organism-based; details: in vivo
[22] = tested on: Heart; experiment: Biodistribution in Wistar rat heart at 20 MBq, iv after 60 mins; format: ADME, organism-based; details: in vivo, 1 h
[23] = tested on: Femur; experiment: Biodistribution in corticosterone pretreated Wistar rat femur at 20 MBq, iv after 60 mins; format: ADME, organism-based; details: in vivo, 1 h
[24] = tested on: Muscle tissue; experiment: Biodistribution in Wistar rat muscle at 20 MBq, iv after 5 mins; format: ADME, organism-based; details: in vivo
[25] = tested on: Thymus; experiment: Biodistribution in corticosterone pretreated Wistar rat thymus at 20 MBq, iv after 60 mins; format: ADME, organism-based; details: in vivo, 1 h
[26] = tested on: Blood; experiment: Biodistribution in Wistar rat blood at 20 MBq, iv after 5 mins; format: ADME, organism-based; details: in vivo
[27] = tested on: Lung; experiment: Biodistribution in Wistar rat lung at 20 MBq, iv after 5 mins; format: ADME, organism-based; details: in vivo
[28] = tested on: Rattus norvegicus; experiment: Biodistribution in corticosterone pretreated Wistar rat fat at 20 MBq, iv after 5 mins; format: ADME, organism-based, Adipose tissue; details: in vivo
[29] = tested on: Rattus norvegicus; experiment: Biodistribution in corticosterone pretreated Wistar rat rest of brain at 20 MBq, iv after 5 mins; format: ADME, organism-based; details: in vivo
[30] = tested on: Cortex; experiment: Biodistribution in Wistar rat cortex at 20 MBq, iv after 5 mins; format: ADME, organism-based; details: in vivo
[31] = tested on: Kidney; experiment: Biodistribution in Wistar rat kidney at 20 MBq, iv after 60 mins; format: ADME, organism-based; details: in vivo, 1 h
[32] = tested on: Rattus norvegicus; experiment: Biodistribution in corticosterone pretreated Wistar rat brown fat at 20 MBq, iv after 60 mins; format: ADME, organism-based, Brown adipose tissue; details: in vivo, 1 h
[33] = tested on: Hippocampus; experiment: Biodistribution in Wistar rat hippocampus at 20 MBq, iv after 60 mins; format: ADME, organism-based; details: in vivo, 1 h
[34] = tested on: Rattus norvegicus; experiment: Biodistribution in Wistar rat fat at 20 MBq, iv after 60 mins; format: ADME, organism-based, Adipose tissue; details: in vivo, 1 h
[35] = tested on: Pancreas; experiment: Biodistribution in Wistar rat pancreas at 20 MBq, iv after 5 mins; format: ADME, organism-based; details: in vivo
[36] = tested on: Rattus norvegicus; experiment: Biodistribution in Wistar rat brown fat at 20 MBq, iv after 60 mins; format: ADME, organism-based, Brown adipose tissue; details: in vivo, 1 h
[37] = tested on: Harderian gland; experiment: Biodistribution in Wistar rat harderian gland at 20 MBq, iv after 60 mins; format: ADME, organism-based; details: in vivo, 1 h
[38] = tested on: Kidney; experiment: Biodistribution in Wistar rat kidney at 20 MBq, iv after 5 mins; format: ADME, organism-based; details: in vivo
[39] = tested on: Rattus norvegicus; experiment: Biodistribution in Wistar rat fat at 20 MBq, iv after 5 mins; format: ADME, organism-based, Adipose tissue; details: in vivo
[40] = tested on: Thymus; experiment: Biodistribution in Wistar rat thymus at 20 MBq, iv after 60 mins; format: ADME, organism-based; details: in vivo, 1 h

Drug uptake [1]: 0.64 % ID/g | Drug uptake [2]: 0.74 % ID/g | Drug uptake [3]: 2.45 % ID/g | Drug uptake [4]: 0.85 % ID/g | Drug uptake [5]: 3.8 % ID/g | Drug uptake [6]: 1.91 % ID/g | Drug uptake [7]: 1.21 % ID/g | Drug uptake [8]: 2.65 % ID/g | Drug uptake [9]: 1.65 % ID/g | Drug uptake [10]: 0.91 % ID/g | Drug uptake [11]: 1.99 % ID/g | Drug uptake [12]: 1.7 % ID/g | Drug uptake [13]: 3.84 % ID/g | Drug uptake [14]: 8.68 % ID/g | Drug uptake [15]: 2.81 % ID/g | Drug uptake [16]: 0.61 % ID/g | Drug uptake [17]: 0.52 % ID/g | Drug uptake [18]: 1.52 % ID/g | Drug uptake [19]: 5 % ID/g | Drug uptake [20]: 1.39 % ID/g | Drug uptake [21]: 1.55 % ID/g | Drug uptake [22]: 0.75 % ID/g | Drug uptake [23]: 0.7 % ID/g | Drug uptake [24]: 0.94 % ID/g | Drug uptake [25]: 1.6 % ID/g | Drug uptake [26]: 0.52 % ID/g | Drug uptake [27]: 1.44 % ID/g | Drug uptake [28]: 1.51 % ID/g | Drug uptake [29]: 1.46 % ID/g | Drug uptake [30]: 1.67 % ID/g | Drug uptake [31]: 1.19 % ID/g | Drug uptake [32]: 7.44 % ID/g | Drug uptake [33]: 0.61 % ID/g | Drug uptake [34]: 3.11 % ID/g | Drug uptake [35]: 2.79 % ID/g | Drug uptake [36]: 8.54 % ID/g | Drug uptake [37]: 3.35 % ID/g | Drug uptake [38]: 1.72 % ID/g | Drug uptake [39]: 1.19 % ID/g | Drug uptake [40]: 1.48 % ID/g
Structure (SMILES): C=CCC1Oc2cccc(O[11CH3])c2-c2ccc3c(c21)C(C)=CC(C)(C)N3 (stereo not given)
